Legend:
Assay in all cases: Example B2 herbicidal action, post-emergence, pots in glasshouse
Assay type in all cases: in vivo
[1] = tested on: Amaranthus retroflexus (AMARE); conditions: Application post-emergence, evaluated after 13 days (100=total damage to plant; 0=no damage to plant)
Method: (§1) Seeds of a variety of test species were sown in standard soil in pots. After 8 days cultivation (post-emergence) under controlled conditions in a glasshouse (at 24/16° C., day/night; 14 hours light; 65% humidity), the plants were sprayed with an aqueous spray solution derived from the formulation of the technical active ingredient in acetone/water (50:50) solution containing 0.5% Tween 20 (polyoxyethylene sorbitan monolaurate, CAS RN 9005-64-5). The test plants were then grown in a glasshouse under controlled conditions in a glasshouse (at 24/16° C., day/night; 14 hours light; 65% humidity) and watered twice daily. After 13 days, the test was evaluated (100=total damage to plant; 0=no damage to plant).

[2] = tested on: Echinochloa crusgalli (ECHCG); conditions: Application post-emergence, evaluated after 13 days (100=total damage to plant; 0=no damage to plant)
Method: as §1

[3] = tested on: Ipomea hederaceae (IPOHE); conditions: Application post-emergence, evaluated after 13 days (100=total damage to plant; 0=no damage to plant)
Method: as §1

Setaria faberi (SETFA) = conditions: Application post-emergence, evaluated after 13 days (100=total damage to plant; 0=no damage to plant)
Method: as §1

Solanum nigrum (SOLNI) = conditions: Application post-emergence, evaluated after 13 days
Method: as §1

Structure (SMILES) | damage to plant, Amaranthus retroflexus (AMARE) [1] | damage to plant, Echinochloa crusgalli (ECHCG) [2] | damage to plant, Ipomea hederaceae (IPOHE) [3] | damage to plant, Setaria faberi (SETFA) (Setaria faberi (SETFA)) | damage to plant, Solanum nigrum (SOLNI) (Solanum nigrum (SOLNI))
CC(C)(C)C(=O)Oc1c(-c2c(F)ccc(F)c2Cl)c(=O)n(CC2CCC2)c2nccnc12 [Compound C131] | 0 | 0 | 0 | 0 | 2
CC(C)(C)C(=O)Oc1c(-c2ccccc2Br)c(=O)[nH]c2nccnc12 [Compound B51] | 3 | 3 | 0 | 6 | 7
CC(C)C(=O)Oc1c(-c2ccccc2OC(F)F)c(=O)n(C)c2nccnc12 [Compound C164] | 9 | 3 | 8 | 4 | 8
Cc1cc(C)c(-c2c(O)c3nccnc3n(C)c2=O)c(C)c1 [Compound D7] | 10 | 10 | 9 | 10 | 10
Cn1c(=O)c(-c2ccccc2Br)c(OC(=O)C(C)(C)C)c2nccnc21 [Compound C146] | 9 | 5 | 7 | 6 | 8
CC(C)(C)C(=O)Oc1c(-c2c(F)ccc(Br)c2Cl)c(=O)[nH]c2nccnc12 [Compound B49] | 10 | 3 | 8 | 7 | 9
CCn1c(=O)c(-c2cc(OC(F)(F)F)ccc2OC)c(OC(=O)C(C)(C)C)c2nccnc21 [Compound C167] | 10 | 5 | 5 | 2 | 9
CCn1c(=O)c(-c2ccccc2OC(F)F)c(OC(=O)C(C)C)c2nccnc21 [Compound C165] | 9 | 1 | 7 | 2 | 10
Cc1ccc(C)c(-c2c(O)c3nccnc3[nH]c2=O)c1 [Compound A37] | 4 | 7 | 1 | 7 | 6
CCn1c(=O)c(-c2c(Cl)cc(OC(F)(F)F)cc2Cl)c(O)c2nccnc21 [Compound D11] | 10 | 10 | 10 | 9 | 10
CC(C)C(=O)Oc1c(-c2cc(F)ccc2Cl)c(=O)[nH]c2nccnc12 [Compound B45] | 4 | 8 | 0 | 8 | 9
CC(C)C(=O)Oc1c(-c2cc(F)c(Cl)cc2Cl)c(=O)[nH]c2nccnc12 [Compound B47] | 2 | 3 | 1 | 4 | 3
CCn1c(=O)c(-c2c(Cl)cc(OC(F)(F)F)cc2Cl)c(OC(=O)C(C)(C)C)c2nccnc21 [Compound C139] | 10 | 10 | 10 | 10 | 10
O=c1[nH]c2nccnc2c(O)c1-c1ccccc1Br [Compound A24] | 10 | 4 | 6 | 6 | 9
CCn1c(=O)c(-c2c(F)ccc(Br)c2Cl)c(OC(=O)C(C)C)c2nccnc21 [Compound C154] | 10 | 3 | 9 | 0 | 10
Cn1c(=O)c(-c2c(Cl)cc(OC(F)(F)F)cc2Cl)c(OC(=O)C(C)(C)C)c2nccnc21 [Compound C138] | 8 | 2 | 8 | 4 | 8
O=c1[nH]c2nccnc2c(O)c1-c1cc(F)ccc1Cl [Compound A38] | 10 | 8 | 0 | 9 | 9
CC(C)(C)C(=O)Oc1c(-c2cc(F)ccc2Cl)c(=O)[nH]c2nccnc12 [Compound B46] | 10 | 4 | 9 | 6 | 10
COc1ccc(OC(F)(F)F)cc1-c1c(OC(=O)C(C)C)c2nccnc2n(C)c1=O [Compound C159] | 9 | 9 | 2 | 7 | 8
CCn1c(=O)c(-c2ccc(C(F)(F)F)cc2Br)c(OC(=O)C(C)(C)C)c2nccnc21 [Compound C147] | 2 | 0 | 2 | 0 | 4
CC(C)(C)C(=O)Oc1c(-c2ccccc2OC(F)F)c(=O)[nH]c2nccnc12 [Compound B59] | 0 | 0 | 3 | 4 | 2
O=c1[nH]c2nccnc2c(O)c1-c1c(Cl)cc(OC(F)(F)F)cc1Cl [Compound A36] | 7 | 10 | 0 | 8 | 8
O=c1[nH]c2nccnc2c(O)c1-c1cc(F)c(Cl)cc1Cl [Compound A39] | 8 | 8 | 0 | 7 | 6
CC(C)C(=O)Oc1c(-c2c(F)ccc(Br)c2Cl)c(=O)[nH]c2nccnc12 [Compound B50] | 10 | 8 | 8 | 8 | 9
CCn1c(=O)c(-c2cc(OC(F)(F)F)ccc2OC)c(OC(=O)C(C)C)c2nccnc21 [Compound C160] | 10 | 8 | 7 | 6 | 9
Cn1c(=O)c(-c2ccc(C(F)(F)F)cc2[N+](=O)[O-])c(OC(=O)C(C)(C)C)c2nccnc21 [Compound C140] | 8 | 3 | 2 | 0 | 9
Cc1ccc(C)c(-c2c(OC(=O)C(C)C)c3nccnc3n(C)c2=O)c1 [Compound C133] | 9 | 6 | 3 | 4 | 9
Cn1c(=O)c(-c2cc(F)c(F)cc2Cl)c(OC(=O)C(C)(C)C)c2nccnc21 [Compound C162] | 9 | 8 | 7 | 7 | 10
CCn1c(=O)c(-c2cc(C)ccc2C)c(OC(=O)C(C)(C)C)c2nccnc21 [Compound C135] | 8 | 2 | 0 | 0 | 10
CC(C)C(=O)Oc1c(-c2cc(F)c(Cl)cc2Cl)c(=O)n(C)c2nccnc12 [Compound C148] | 9 | 6 | 7 | 4 | 6

Source: patent publication US8133847B2, “Pyrido[2,3-B]pyrazine derivatives useful as herbicidal compounds” (Syngenta Limited, priority 2006, dated 2012)
